Eight compounds from PMC4585835 (Scientific Reports, 2015) can be followed below.

Where two headings read alike, the source gives them in different places. Where a SMILES comes first, the peptide text is derived from it. Where no end group is shown, it is not given here. [ ]: non-standard residue; d: D form. The star is where a group is joined. Stearoyl = CCCCCCCCCCCCCCCCCC(=O)* A value given as a limit tells only on which side of the number the result lay.

As usually defined, the Ki is a dissociation constant, usually derived from enzyme kinetics or from competition with a known ligand. A lower Ki goes with higher affinity. Usually AUC(0-inf) stands for the area under the concentration-time curve extrapolated to infinity. Low readings indicate less exposure, high ones more exposure. As a reminder, the AUC(0-t) is exposure summed from dosing to a finite time, without extrapolation to infinity. The term Cmax denotes the maximum level reached in the sampled fluid or tissue. The term clearance denotes a measure of how efficiently the substance is removed, as volume per time. A word on the half-life: it is how long it takes for the measured level to halve.

One data set addresses T1, trypsin (Bos taurus, UniProt P00760).
T1 construct: purchased Roche Corp (Indianapolis, USA)
T1 sequence (P00760 24-246): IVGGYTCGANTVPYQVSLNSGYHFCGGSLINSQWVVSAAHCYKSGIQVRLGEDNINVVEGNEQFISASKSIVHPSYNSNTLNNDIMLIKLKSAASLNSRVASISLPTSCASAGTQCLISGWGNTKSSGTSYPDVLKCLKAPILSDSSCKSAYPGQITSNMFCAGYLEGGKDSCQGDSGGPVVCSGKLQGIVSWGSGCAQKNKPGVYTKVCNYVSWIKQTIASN
Description: Degradation mediated by trypsin (HPLC). As to conditions: trypsin (119 ng/μL) in Tris-HCl buffer, pH 8.5, 119 μg/ml trypsin, peptide 0.79 mM, 37 °C, read-out: peptide intact after incubation with trypsin. Format: in vitro ADME. From the text: The degradation of peptides mediated by trypsin can be effectively monitored by HPLC analysis. […] The detector wavelength was set at 214 nm.

In data set [1] the target is T2, human thrombin (Homo sapiens, UniProt P00734).
T2 construct: purchased National Institute for the Control of Pharmaceutical and Biological Products (Beijing, China)
Description: Degradation mediated by human thrombin (HPLC). Format: in vitro ADME. The conditions noted are these: human thrombin (69 NIH/mL) in Tris-HCl buffer, pH 8, 69 NIH/ml human thrombin, peptide 0.41 mM, 37 °C, read-out: peptide remained after reaction with human thrombin. The method, then: The catalytic cleavage of peptides mediated by thrombin was also examined using the same method. Specifically, a peptide solution (0.41 mM) was first incubated with thrombin (69 NIH/mL) in Tris-HCl buffer (70 mM Tris HCl, NaCl 50 mM, pH = 8.0) at 37 °C.

The next data set addresses T3, rat thrombin (Rattus norvegicus, UniProt P18292).
T3 construct: purchased Sigma
The data set is described as follows: Inhibition of rat thrombin-catalyzed hydrolysis of Chromozym TH. Format: biochemical. The conditions noted are these: 25 °C, pH 7.4.

The nature of data set [2]: Pharmacokinetics in rats, i.v. As to conditions: rat, 1 μmol/kg i.v., n = 5; for AUC(0-t): read-out: AUC(0-t) (converted); for MRT last: read-out: MRT0-t (converted); for Vd: read-out: Vss. Format: in vivo. How it is done:
SD Rats were randomly divided into three groups (n = 5). […] All blood samples were immediately centrifuged at 5000 rpm for 5 min at room temperature, and the plasma obtained was stored at −20 °C before analysis. To the rat plasma (100 μL) was added 10 μL internal standard (80 ~ 100 ng/ml Carbamazepine), followed by mixing with 200 μL methanol with vortexing for 1 min. At this stage, certain amounts of proteins may precipitate out, thus this mixture was centrifuged at 12,000 rpm for 5 min at room temperature to achieve complete separation. The 20 μl supernatant was injected into a HPLC (Symbiosis, Spark, Holland; column: 50 mm × 2.1 mm, 5 μm, Agilent Eclipse Plus) –MS/MS system (ABI 4000 Q-Trap triple quadrupole mass spectrometer) equipped with electrospray ionization (ESI) source in the positive ion mode (Foster City, USA). The HPLC elution gradient was as follows: 0–0.5 min, 5–5% (B); 0.5–3 min, 5–95% (B); 3–4 min, 95–95% (B); 4–4.06 min, 95–5% (B); 4.06–6 min, 5–5% (B); the flow-rate was 0.4 ml/min; A was 0.1% formic acid/Waterl, B was 0.1% formic acid/methanol. The MS parameters were: CUR10Psi; Ion Spray Voltage (IS) 5500v; Collision activated dissociation (CAD) High, Gas1 = 50 psi, Gas2 = 50 psi, TEM = 500 °C.
All three peptides remained stable in plasma during three freeze/thaw cycles, at room temperature for at least 2 h. The supernatant of plasma samples were also found to be stable for at least 24 h at 10 °C in the autosampler.
The statistical significance of the difference among pharmacokinetic parameters was determined using the mean comparison Student’s t-test, and the resulting P values were lower than 0.05, which is considered to be statistically significant.

Data set [3] can be described thus: Bleeding time test (BT) in rats. As to conditions: 30 min after administration. It is filed as in vivo, rat. How it is done:
Bleeding time was determined as reported previously. Male SD rats (180–220 g) were divided into 6 groups (n = 8). […] Thirty minutes after the injection, bleeding was induced by tail transection of the anesthetized rat with a size 21 disposable scalpel blade 2 mm from the tail tip. The bleeding tail was wiped with filter paper every 30 s, and the bleeding time was recorded when no blood was observed on the filter paper.

Data set [4] has as its target T2, human thrombin. The data set is described as follows: Inhibition of human thrombin-catalyzed hydrolysis of Chromozym TH. As to conditions: 25 °C, pH 7.4. It is filed as biochemical. The method, then: The inhibition constant (Ki) was determined as reported previously. A 0.05 mL of peptide solution (concentration 10, 25, 50, 100, 150, 500 and 1000 nM, respectively) was added to 0.4 mL mixture of Hepes buffer (10 mM Hepes, 10 mM Tris, 0.1 M NaCl, 0.1% PEG 6000, pH 7.4) and bovine or human thrombin (0.25 NIH). The resulting solution was incubated at 25 °C for 2 min, followed by the addition of 0.05 mL Chromozym TH (concentration 25, 33, 40, 50, 100, 125, 200, 330, 500, and […], respectively). The absorbance at 405 nm was measured using a Beckman DU640 spectrometer. The inhibition constant (Ki) was determined using the following equation (Eq.1) originally developed for competitive inhibition processes[25]:
Herein, S is the initial substrate concentration; I is the inhibitor concentration; v is the initial steady-state velocity; Vmax is the limiting maximal velocity; and Km is the dissociation constant of the complex.

The subject of data set [5] is human thrombin. The data set is described as follows: thrombin (69 NIH/mL) in Tris-HCl buffer (70 mM Tris HCl, NaCl 50 mM, pH = 8.0). As to conditions: 37 °C, up to 5 h.
In data set [6] the test system is Trypsin (modified sequencing grade). The data set is described as follows: trypsin (119 ng/μL) in the Tris-HCl buffer (90 mM, pH = 8.5). The conditions noted are these: 37 °C, up to 5 h.

`CC[C@H](C)[C@H](NC(=O)[C@@H]1CCCN1C(=O)[C@H](CCC(=O)O)NC(=O)[C@H](Cc1ccccc1)NC(=O)[C@H](CC(=O)O)NC(=O)CNC(=O)[C@H](CCC(N)=O)NC(=O)CNC(=O)CNC(=O)CNC(=O)CNC(=O)[C@@H]1CCCN1C(=O)[C@H](CCCNC(=N)N)NC(=O)[C@@H]1CCCN1C(=O)[C@H](N)Cc1ccccc1)C(=O)N1CCC[C@H]1C(=O)N[C@@H](CCC(=O)O)C(=O)N[C@@H](CC(=O)O)C(=O)N[C@@H](C)C(=O)N[C@@H](Cc1ccc(O)cc1)C(=O)N[C@@H](CC(=O)O)C(=O)N[C@@H](CCC(=O)O)C(N)=O` [Peptide 1] (H-[dF]PRPGGGGQGDFEPIPEDAYDE-NH2): on trypsin, the remaining at 3 h, 0.79 mM is 5% and the remaining at 5 h, 0.79 mM is 1%. Also, at human thrombin [1], the remaining at 3 h, 0.41 mM was 70% and the remaining at 5 h, 0.41 mM was 46%. The compound further gave a Ki at rat thrombin of 13.4 ± 0.46 nM. Further, in data set [2] (SD, plasma, iv, 1 umol/kg), the AUC(0-inf) is 0.432 µM·h and the AUC(0-t) is 0.428 µM·h. Further, in data set [2] (in vivo, iv, 1 umol/kg), the Cmax is 2300 ± 400 nM, the clearance came to 36.4 ± 3.6 mL/min/kg, the MRT last was 13.9 min and the Vd was found to be 0.504 ± 0.0217 L/kg. The compound also displayed a half-life in data set [2] (in vivo, iv, 1 umol/kg) of under 16 min. For the same compound, the T1/2 in data set [2] was determined as 13.5 ± 2.6 min.

Turning to `CC[C@H](C)[C@H](NC(=O)[C@H](CCC(=O)O)NC(=O)[C@H](CCC(=O)O)NC(=O)[C@H](Cc1ccccc1)NC(=O)[C@H](CC(=O)O)NC(=O)CNC(=O)[C@H](CC(N)=O)NC(=O)CNC(=O)CNC(=O)CNC(=O)CNC(=O)[C@@H]1CCCN1C(=O)[C@H](CCCNC(=N)N)NC(=O)[C@@H]1CCCN1C(=O)[C@H](N)Cc1ccccc1)C(=O)N1CCC[C@H]1C(=O)N[C@@H](CCC(=O)O)C(=O)N[C@@H](CCC(=O)O)C(=O)N[C@@H](Cc1ccc(O)cc1)C(=O)N[C@@H](CC(C)C)C(=O)O` [Hirulog-1, reference compound], on trypsin, the remaining at 3 h, 0.79 mM came to 10% and the remaining at 5 h, 0.79 mM was 6%. Moreover, the “bleeding time (BT)” value in data set [3] (8 mg/kg) is 525.00 ± 48.11 s. Moreover, on human thrombin [1], the remaining at 3 h, 0.41 mM was found to be 57% and the remaining at 5 h, 0.41 mM worked out at 23%. The Ki on rat thrombin was 20.5 ± 0.62 nM. Besides, in data set [2] (SD, plasma, iv, 1 umol/kg), the AUC(0-inf) was 0.415 µM·h, the highest level (Cmax) was 3100 ± 1100 nM, the clearance is 42.6 ± 5.2 mL/min/kg and the AUC(0-t) was 0.395 µM·h. In addition, in data set [2] (SD, plasma, iv, 1 umol/kg), the MRT last is 12.1 min and the Vd is 0.522 ± 0.151 L/kg.

For the compound `CCCCCCCCCCCCCCCCCC(=O)NCCCC[C@H](NC(=O)[C@@H]1CCCN1C(=O)[C@H](CCCNC(=N)N)NC(=O)[C@@H]1CCCN1C(=O)[C@H](N)Cc1ccccc1)C(=O)NCC(=O)NCC(=O)NCC(=O)N[C@@H](CCC(N)=O)C(=O)NCC(=O)N[C@@H](CC(=O)O)C(=O)N[C@@H](Cc1ccccc1)C(=O)N[C@@H](CCC(=O)O)C(=O)N1CCC[C@H]1C(=O)N[C@H](C(=O)N1CCC[C@H]1C(=O)N[C@@H](CCC(=O)O)C(=O)N[C@@H](CC(=O)O)C(=O)N[C@@H](C)C(=O)N[C@@H](Cc1ccc(O)cc1)C(=O)N[C@@H](CC(=O)O)C(=O)N[C@@H](CCC(=O)O)C(N)=O)[C@@H](C)CC` [Peptide S1] (H-[dF]PRPK(Stearoyl)GGGQGDFEPIPEDAYDE-NH2; N-terminus assumed), the Ki on human thrombin [4] was determined as 19.5 ± 0.4 nM; on rat thrombin, 37.4 ± 1.16 nM.

Turning to D-FPRP-GGGG-QGDFEPIPEDAYDE^*, the cleaved bond result (in the data set on human thrombin [5]; in data set [6]) was “Arg-Pro” in each case.

Consider “D-FPRP-GK(stearic acid)GG-QGDFEPIPEDAYDE^* ([dF]PRPGK(Stearoyl)GGQGDFEPIPEDAYDE-NH2)”, for which the cleaved bond result (in the data set with human thrombin [5]; in data set [6]) was “Arg-Pro” throughout.

On to `CCCCCCCCCCCCCCCCCC(=O)NCCCC[C@H](NC(=O)CNC(=O)CNC(=O)CNC(=O)[C@@H]1CCCN1C(=O)[C@H](CCCNC(=N)N)NC(=O)[C@@H]1CCCN1C(=O)[C@H](N)Cc1ccccc1)C(=O)N[C@@H](CCC(N)=O)C(=O)NCC(=O)N[C@@H](CC(=O)O)C(=O)N[C@@H](Cc1ccccc1)C(=O)N[C@@H](CCC(=O)O)C(=O)N1CCC[C@H]1C(=O)N[C@H](C(=O)N1CCC[C@H]1C(=O)N[C@@H](CCC(=O)O)C(=O)N[C@@H](CC(=O)O)C(=O)N[C@@H](C)C(=O)N[C@@H](Cc1ccc(O)cc1)C(=O)N[C@@H](CC(=O)O)C(=O)N[C@@H](CCC(=O)O)C(N)=O)[C@@H](C)CC` [Peptide S3] (H-[dF]PRPGGGK(Stearoyl)QGDFEPIPEDAYDE-NH2; N-terminus assumed), for which the Ki on human thrombin [4] is 11 ± 0.15 nM; at rat thrombin, 54.5 ± 0.82 nM.

In the case of heparin [reference compound], the “bleeding time (BT)” value in data set [3] (200 IU/kg) came out at 401 ± 83.23 s.

Turning to D-FPRP-GGGG-QGDFEEIPEEYL, the cleaved bond entry (with human thrombin [5]; in data set [6]) was “Arg-Pro” throughout.
